Measured values as given in US11453660B2, “Androgen receptor and glucocorticoid receptor modulators” (ONCOSTELLAE, S.L., priority 2017, dated 2022).

Key:
Rat Androgen Receptor = target: T1, Rat Androgen Receptor (Rattus norvegicus, UniProt P15207); assay: Rat Androgen Receptor Binding (polarscreen AR competitor assay, fluorescence polarization); conditions: displacement of Fluormone AL Green, 4 hours at RT, read-out: AR rat-fluorimetric
T1 construct: purchased Life Technologies A15880
T1 sequence (P15207 646-902 limits assumed): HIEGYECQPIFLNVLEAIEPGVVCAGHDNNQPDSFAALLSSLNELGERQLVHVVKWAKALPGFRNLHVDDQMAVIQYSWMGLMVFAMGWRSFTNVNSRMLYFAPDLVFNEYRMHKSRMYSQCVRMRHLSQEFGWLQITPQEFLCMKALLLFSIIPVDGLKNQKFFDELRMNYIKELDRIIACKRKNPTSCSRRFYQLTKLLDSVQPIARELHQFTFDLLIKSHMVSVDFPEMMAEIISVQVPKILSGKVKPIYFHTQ
Experimental: Pharmacological Activity Rat Androgen Receptor Binding
The assay was carried out following the instructions of polarscreen AR competitor assay green kit (Life Technologies, Cat #.: A15880). Briefly, the test is based on measuring the changes of fluorescence polarization shown by the Fluormone AL Green. Thus, when the Fluormone is bound to the receptor, a fluorescence polarization is observed that diminishes when a ligand competes for the receptor binding site and the Fluormone gets displaced.
The inhibition values for each of the compounds are measured in duplicate at 1 and 10 μM and the plate is incubated for 4 hours at RT. Fluorescence polarization is the measured in a Tecan Infinite M1000 Pro reader (λexc=485 nm, λem=535 nm). In order to obtain a dose-response curve and calculate the potency of inhibition (expressed as IC50) for AR, a series of 1:10 dilutions in test in 1× buffer from 10 μM to 0.1 nM for each compound was carried out.

human androgen receptor = target: T2, human androgen receptor (Homo sapiens, UniProt P10275, T878A); assay: Human Androgen Receptor Binding (radioligand binding, LnCap prostate cancer cell line); conditions: LnCap cells, displacement of [^3H]-methyltrienolone, 2 hours at 37° C.; read-out: AR LNCaP
T2 construct: endogenously expressed human androgen receptor using the LnCap prostate cancer cell line; endogenous in cells; host or cells: LNCaP prostate cancer cell line (whole cells)
T2 sequence (P10275 1-920 T878A): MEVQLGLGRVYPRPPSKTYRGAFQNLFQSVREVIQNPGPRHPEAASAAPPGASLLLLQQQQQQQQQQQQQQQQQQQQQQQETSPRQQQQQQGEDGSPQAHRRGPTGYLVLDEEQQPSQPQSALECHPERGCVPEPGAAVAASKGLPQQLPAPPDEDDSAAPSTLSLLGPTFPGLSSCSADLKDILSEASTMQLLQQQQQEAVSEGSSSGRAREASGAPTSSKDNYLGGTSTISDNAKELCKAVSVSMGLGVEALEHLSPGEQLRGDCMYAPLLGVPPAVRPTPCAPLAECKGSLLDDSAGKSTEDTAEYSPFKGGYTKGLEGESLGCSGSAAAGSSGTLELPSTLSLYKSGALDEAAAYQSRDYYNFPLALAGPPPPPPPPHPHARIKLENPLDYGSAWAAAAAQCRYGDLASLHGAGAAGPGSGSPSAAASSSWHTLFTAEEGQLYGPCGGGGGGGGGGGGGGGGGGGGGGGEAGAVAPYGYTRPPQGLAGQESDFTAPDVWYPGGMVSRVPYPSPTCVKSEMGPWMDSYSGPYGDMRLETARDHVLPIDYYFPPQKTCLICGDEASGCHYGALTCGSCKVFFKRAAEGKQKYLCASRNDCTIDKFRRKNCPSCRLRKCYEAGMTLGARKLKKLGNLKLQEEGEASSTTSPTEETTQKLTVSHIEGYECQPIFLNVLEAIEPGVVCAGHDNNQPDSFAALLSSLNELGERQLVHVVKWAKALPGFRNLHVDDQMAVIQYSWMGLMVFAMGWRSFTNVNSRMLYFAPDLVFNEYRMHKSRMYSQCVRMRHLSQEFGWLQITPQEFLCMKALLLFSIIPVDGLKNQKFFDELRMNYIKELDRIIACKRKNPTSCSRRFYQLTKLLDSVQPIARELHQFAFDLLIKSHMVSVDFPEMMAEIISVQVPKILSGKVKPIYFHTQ
How it was run: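 Whole-cell displacement of [3H]-methyltrienolone from endogenous AR (T878A) in LnCap cells, in RPMI with 0.1% BSA and triamcinolone acetonide. Compounds 10 μM to 0.1 nM in 1:10 steps, 2 h at 37 °C; cells washed, SDS-lysed, bound radioactivity by scintillation counting for IC50.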

[1] = target: T3, Human Glucocorticoid Receptor (Homo sapiens, UniProt P04150); assay: Competition Binding in IM-9 Human Glucocorticoid Receptor (GR IM-9); conditions: cytosol from IM-9 cell line, 1.5 nM [3H]-Dexamethasone, 4° C. for 6 hours
T3 construct: endogenous in cells; host or cells: cytosol from IM-9 cell line
T3 sequence (P04150 1-777): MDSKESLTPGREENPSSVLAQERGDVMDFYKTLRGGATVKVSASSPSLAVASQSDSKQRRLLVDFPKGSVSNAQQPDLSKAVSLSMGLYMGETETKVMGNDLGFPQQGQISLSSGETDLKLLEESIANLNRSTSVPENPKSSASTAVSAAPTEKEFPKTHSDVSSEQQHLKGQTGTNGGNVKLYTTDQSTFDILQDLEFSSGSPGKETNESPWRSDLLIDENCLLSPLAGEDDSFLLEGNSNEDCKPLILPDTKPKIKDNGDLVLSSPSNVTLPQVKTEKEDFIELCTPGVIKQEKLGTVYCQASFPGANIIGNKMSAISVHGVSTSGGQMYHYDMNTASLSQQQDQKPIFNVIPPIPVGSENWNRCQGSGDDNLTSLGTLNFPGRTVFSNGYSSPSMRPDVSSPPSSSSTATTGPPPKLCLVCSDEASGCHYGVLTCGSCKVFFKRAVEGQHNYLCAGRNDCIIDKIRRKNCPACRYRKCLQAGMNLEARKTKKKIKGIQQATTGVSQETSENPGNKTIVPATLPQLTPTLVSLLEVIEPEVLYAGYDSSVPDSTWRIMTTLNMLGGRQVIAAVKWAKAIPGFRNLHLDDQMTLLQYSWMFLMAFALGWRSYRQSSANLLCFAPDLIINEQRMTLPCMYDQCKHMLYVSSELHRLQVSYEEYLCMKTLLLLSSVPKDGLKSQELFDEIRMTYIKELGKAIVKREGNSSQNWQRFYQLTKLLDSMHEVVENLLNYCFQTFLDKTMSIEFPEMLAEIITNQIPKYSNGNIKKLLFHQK
How it was run: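 Radioligand competition using 100 μg IM-9 cell cytosol and 1.5 nM [3H]-dexamethasone, incubated 6 h at 4° C in TES/molybdate buffer, pH 7.4. Filtration on PEI-treated GF/B filters, scintillation counting; nonspecific binding defined with 10 μM triamcinolone.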

| SMILES | IC50 (Rat Androgen Receptor) [nM] | IC50 (human androgen receptor) [nM] | IC50 [1] [nM] |
| --- | --- | --- | --- |
| CC1=C(C#N)C(c2csc3ccccc23)C(C#N)=C(C)N1 [Example E1, 4-(Benzo[b]thiophen-3-yl)-2,6-dimethyl-1,4-dihydropyridine-3,5-dicarbonitrile] | < 100 | < 100 |  |
| COC(=O)C1=C(C(F)(F)F)NC(C)=C(C(C)=O)C1c1csc2ccccc12 (centres unmarked) [Example C14, Methyl 5-acetyl-4-(benzo[b]thiophen-3-yl)-6-methyl-2-(trifluoromethyl)-1,4-dihydropyridine-3-carboxylate] | 100 to 1000 | < 100 | 100 to 1000 |
| CC(=O)C1=C(C)NC(C)=C(C(=O)OCC2CC2)C1c1csc2ccccc12 (centres unmarked) [Example C6, Cyclopropylmethyl 5-acetyl-4-(benzo[b]thiophen-3-yl)-2,6-dimethyl-1,4-dihydropyridine-3-carboxylate] | 100 to 1000 | 100 to 1000 | < 100 |
| COC(=O)C1=C(C)NC(C)=C(C(C)=O)C1c1csc2ncccc12 (centres unmarked) [Example J21, Methyl 5-acetyl-2,6-dimethyl-4-(thieno[2,3-b]pyridin-3-yl)-1,4-dihydropyridine-3-carboxylate] | < 100 | < 100 |  |
| CC(=O)C1=C(C)NC(C)=C(C(=O)OCC2CCCC2)C1c1csc2ncccc12 (centres unmarked) [Example C35, Cyclopentylmethyl 5-acetyl-2,6-dimethyl-4-(thieno[2,3-b]pyridin-3-yl)-1,4-dihydropyridine-3-carboxylate] | 100 to 1000 |  | < 100 |
| CC(=O)C1=C(C)NC(C)=C(C(C)=O)C1c1csc2ncccc12 [Example H15, 1,1′-(2,6-Dimethyl-4-(thieno[2,3-b]pyridin-3-yl)-1,4-dihydropyridine-3,5-diyl)bis(ethan-1-one)] | < 100 | 100 to 1000 |  |
| CC(=O)C1=C(C)NC(C)=C(C(C)=O)C1c1csc2ccccc12 [Example G1, 1,1′-(4-(benzo[b]thiophen-3-yl)-2,6-dimethyl-1,4-dihydropyridine-3,5-diyl)diethanone] | < 100 | < 100 |  |
| COC(=O)C1=C(CF)NC(C)=C(C(C)=O)C1c1csc2ccccc12 (centres unmarked) [Example C20, Methyl 5-acetyl-4-(benzo[b]thiophen-3-yl)-2-(fluoromethyl)-6-methyl-1,4-dihydropyridine-3-carboxylate] | 100 to 1000 | 100 to 1000 |  |
| COC(=O)C1=C(N)NC(C)=C(C(C)=O)C1c1csc2ccccc12 (centres unmarked) [Example D1, Methyl 5-acetyl-2-amino-4-(benzo[b]thiophen-3-yl)-6-methyl-1,4-dihydropyridine-3-carboxylate] | < 100 | 100 to 1000 | ≥ 1000 |
| CC(=O)C1=C(C)NC(C)=C(C(=O)OCc2cncc(-c3cccnc3)c2)C1c1csc2ncccc12 (centres unmarked) [Example L8, [3,3′-bipyridin]-5-ylmethyl 5-acetyl-2,6-dimethyl-4-(thieno[2,3-b]pyridin-3-yl)-1,4-dihydropyridine-3-carboxylate] | ≥ 1000 |  |  |
| CC(=O)C1=C(C)NC(C)=C(C(C)=O)C1c1csc2ccc(N3CCN(C)CC3)cc12 [Example H5, 1,1′-(2,6-dimethyl-4-(5-(4-methylpiperazin-1-yl)benzo[b]thiophen-3-yl)-1,4-dihydropyridine-3,5-diyl)bis(ethan-1-one)] | ≥ 1000 |  |  |
| COCC1=C(C(C)=O)C(c2csc3ccccc23)C(C(=O)OC)=C(C)N1 (centres unmarked) [Example C19, Methyl 5-acetyl-4-(benzo[b]thiophen-3-yl)-6-(methoxymethyl)-2-methyl-1,4-dihydropyridine-3-carboxylate] | ≥ 1000 |  |  |
| COC(=O)C1=C(N)NC(C)=C(C(=O)C2CC2)C1c1csc2ccccc12 (centres unmarked) [Example D2, Methyl 2-amino-4-(benzo[b]thiophen-3-yl)-5-(cyclopropanecarbonyl)-6-methyl-1,4-dihydropyridine-3-carboxylate] | ≥ 1000 |  |  |
| CC(=O)C1=C(C)NC(C)=C(C(C)=O)C1c1csc2ccc(F)cc12 [Example H3, 1,1′-(4-(5-fluorobenzo[b]thiophen-3-yl)-2,6-dimethyl-1,4-dihydropyridine-3,5-diyl)bis(ethan-1-one)] | ≥ 1000 |  |  |
